Test results from US20230025891A1, “COMPOSITION OF NATURAL EXTRACTS HAVING ANTIBACTERIAL OR BACTERIOSTATIC ACTIVITY ALSO FOR GRAM-NEGATIVE BACTERIA” (priority 2019, published 2023).

Tests used:
Solubility = type: physicochemical; conditions: qualitative
Description: Racemic usnic acid (CAS No. 125-46-2) is the bioactive secondary metabolite of lichens. The large-scale use of said usnic acid has always been limited due to the low solubility in water (0.06 mg/cm^3, at room temperature of 20° C. and 1 atmosphere pressure).
As mentioned above, in such compound (ci) the lipophilic cavity of the cyclodextrins (host) hosts D-usnic acid, or salt thereof, or mixtures thereof (i) (guest), through a reversible non-covalent interaction. As a matter of fact, during the formation of the inclusion compound (ci), no covalent bond is formed, and no covalent bond is broken. The mechanism which—at least primarily—promotes the formation of the inclusion compound is the release of solvent molecules (preferably water molecules), a highly enthalpic exchange reaction, from the cyclodextrin cavity (ii). […] Furthermore, the inclusion compound (ci) renders D-usnic acid (or a salt thereof) compatible in an aqueous solution or an aqueous dispersion or an aqueous suspension. When said aqueous solution or dispersion or suspension, containing said inclusion compound (ci), is applied manually—by spraying or mechanically—to a surface such as that of a wall or floor of a hospital or kindergarten or school room, said acid or a salt thereof contained in said inclusion compound (ci) is capable of being placed, adhering and coating said surface uniformly and homogeneously as if it were a coating paint.
Said D-usnic acid as enantiomer (i), preferably as pure enantiomer, is of natural origin and could be associated, as chemical structure, with that of the corresponding synthesis compound having CAS No. 7562-61-0, i.e. the dextrorotatory enantiomer of said acid. The D-usnic acid as the pure enantiomer of the present invention is soluble in chloroform and ethyl acetate. […] Said D-usnic acid as a pure enantiomer has a melting point comprised from 192° C. to 204° C., a flash point of 223° C. and a boiling point of 605° C. Preferably, said D-usnic acid salt as pure enantiomer is a sodium salt. Said inclusion compound (ci) preferably comprises solid particles of D-usnic acid as pure enantiomer, or salt thereof, or mixtures thereof (i). More preferably, said solid particles have an average particle distribution comprised from 0.01 μm to 50 μm, preferably comprised from 0.1 μm to 30 μm, more preferably comprised from 0.15 μm to 20 μm, even more preferably comprised from 0.2 μm to 15 μm. Said average particle distribution was determined and measured using a laser diffraction method, according to the GB/T 19077-2016 standard, for example with a Malvern Mastersizer 3000 instrument. Said standard is meant in the version valid at the priority date of the present patent application. […]

[1] = Observed anti-bacterial efficacy depending on origin and isomer of usnic acid; conditions: natural versus synthetic dextrorotatory form
Text: Therefore, the solubility of usnic acid in water has always represented, and still represents, a great limit to its use. Furthermore, as regards the efficacy of usnic acid (or of a relative salt thereof) in terms of anti-bacterial activity, the inventors of the present invention observed that it depends both on the (natural or synthetic) origin of usnic acid and on the type of isomer (levorotatory(−) and/or dextrorotatory(+)) used.

CC(=O)c1c(O)c(C)c(O)c2c1OC1=CC(=O)C(C(C)=O)C(=O)C12C (single isomer, unassigned; (+)) [D-usnic acid, (+)-Usnic acid 2,6-Diacetyl-7,9-dihydroxy-8,9-dimethyldibenzo[b,d]furan-1,3(2H,9bH)-dione]
solubility in chloroform (Solubility): soluble | solubility in ethanol (Solubility): moderately soluble | solubility in ethyl acetate (Solubility): soluble | solubility in water (Solubility): insoluble | stability, efficacy and activity compared with synthetic origin [1]: more stable, effective and active than the dextrorotatory form (+) of synthetic origin
